This note sets out measurements from publication PMC7014271, “Oral Delivery of a Tetrameric Tripeptide Inhibitor of VEGFR1 Suppresses Pathological Choroid Neovascularization” (International Journal of Molecular Sciences, 2020).

Where a name gives a salt, the structure may show the parent alone. Read-outs that look alike come from different tables or passages of the source. Where only a bound is given, the exact number is not on record here.

For this assay, the target named is T1, VEGF-A/VEGFR1 (recombinant VEGF-A binding to immobilized VEGFR1) (Homo sapiens, UniProt P17948).
T1 construct: purchased R&D Systems
T1 sequence (P17948 27-687 limits assumed, species assumed): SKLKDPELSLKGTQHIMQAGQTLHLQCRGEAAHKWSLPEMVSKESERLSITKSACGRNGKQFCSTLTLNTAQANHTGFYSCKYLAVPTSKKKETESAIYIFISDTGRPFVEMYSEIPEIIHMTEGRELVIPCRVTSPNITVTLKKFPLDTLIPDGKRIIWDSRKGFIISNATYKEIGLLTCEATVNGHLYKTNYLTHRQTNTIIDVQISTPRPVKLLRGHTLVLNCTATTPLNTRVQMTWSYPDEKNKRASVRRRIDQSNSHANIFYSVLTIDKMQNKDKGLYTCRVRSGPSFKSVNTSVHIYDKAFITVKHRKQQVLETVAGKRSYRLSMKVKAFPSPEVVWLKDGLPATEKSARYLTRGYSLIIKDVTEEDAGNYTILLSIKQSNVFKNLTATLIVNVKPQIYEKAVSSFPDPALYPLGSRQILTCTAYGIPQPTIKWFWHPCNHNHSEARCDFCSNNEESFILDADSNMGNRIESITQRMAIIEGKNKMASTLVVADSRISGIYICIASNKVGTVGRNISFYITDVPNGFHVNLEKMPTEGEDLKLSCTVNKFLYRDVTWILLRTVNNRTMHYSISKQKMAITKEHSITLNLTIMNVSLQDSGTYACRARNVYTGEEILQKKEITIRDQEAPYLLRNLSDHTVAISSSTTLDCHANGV
Nature of the assay: Competitive ELISA for VEGF-A/VEGFR-1 interaction. In kind it is biochemical. The method, then: The competitive ELISA based assay was performed by coating on 96-well plates a recombinant form of VEGFR-1 (R&D Systems, Minneapolis, MN, USA) at 0.5 µg/mL in PBS, 100 µL/well (the same volume was used for all subsequent steps), 16 h at room temperature. The plate was then blocked for 3 h at RT with 1% bovine serum albumin (BSA). Recombinant form of VEGF-A (R&D Systems) at 5 ng/mL in PBS containing 0.1% BSA, 5 mM EDTA, 0.004% Tween 20 (PBET) and 4% DMSO, was added alone or mixed with peptides at a concentration ranging between 0.04 and 100 µM, and incubated for 1 h at 37 °C followed by 1 h at RT. A biotinylated anti VEGF-A polyclonal antibody (R&D Systems) diluted in PBET at 150 ng/mL, was added to the wells and incubated for 1 h at 37 °C followed by 1 h at RT. […] The reaction was blocked by adding 30 µL/well of 4 N H2SO4 and the absorbance measured at 490 nm on a microplate reader (BenchMark, Biorad, Hercules, CA, USA).
In general terms: An ELISA detects its analyte on a solid surface through an enzyme-linked reagent.

Setting [1] is: competitive ELISA, VEGFR-1 coated 0.5 µg/mL, VEGF-A 5 ng/mL, peptides 0.04-100 µM, PBET, 4% DMSO, 1 h 37 °C then 1 h RT, absorbance 490 nm, mean of two independent experiments in triplicate, read-out: IC50 of VEGF-A binding to VEGFR1 (concentration at 50% inhibition).

Regarding `N[C@H](CCC(=O)O)C(=O)N[C@@H](CSCc1ccccc1)C(=O)N[C@@H](CC1CCCCC1)C(=O)NCCCC[C@H](NC(=O)[C@H](CC1CCCCC1)NC(=O)[C@H](CSCc1ccccc1)NC(=O)[C@H](N)CCC(=O)O)C(=O)NCCCC[C@H](NC(=O)[C@H](CCCCNC(=O)[C@H](CC1CCCCC1)NC(=O)[C@H](CSCc1ccccc1)NC(=O)[C@H](N)CCC(=O)O)NC(=O)[C@H](CC1CCCCC1)NC(=O)[C@H](CSCc1ccccc1)NC(=O)[C@H](N)CCC(=O)O)C(=O)NCC(=O)O` [iVR1, [D-Glu-L-Cys(Bzl)-L-Cha]4-Lys2-Lys-Gly], the IC50 (acetate counter-ion, VEGF-A/VEGFR1, read-out: IC50 of iVR1 after TFA replaced with acetate (rounded, discussion)) was < 2000 nM.

As for `N[C@H](CCC(=O)O)C(=O)N[C@@H](CSCc1ccccc1)C(=O)N[C@@H](CC1CCCCC1)C(=O)NCCCC[C@H](NC(=O)[C@H](CC1CCCCC1)NC(=O)[C@H](CSCc1ccccc1)NC(=O)[C@H](N)CCC(=O)O)C(=O)NCCCC[C@H](NC(=O)[C@H](CCCCNC(=O)[C@H](CC1CCCCC1)NC(=O)[C@H](CSCc1ccccc1)NC(=O)[C@H](N)CCC(=O)O)NC(=O)[C@H](CC1CCCCC1)NC(=O)[C@H](CSCc1ccccc1)NC(=O)[C@H](N)CCC(=O)O)C(=O)NCC(=O)O` [iVR1-Ac, [D-Glu-L-Cys(Bzl)-L-Cha]4-Lys2-Lys-Gly], the IC50 under setting [1] amounted to 1940 nM. Besides, under “iVR1-Ac vs iVR1-TFA, VEGF-A/VEGFR1 competitive ELISA”, the “Increase in inhibitory activity (reduction of IC50) upon TFA to acetate exchange” value is given as “about five”.

With `N[C@H](CCC(=O)O)C(=O)N[C@@H](CSCc1ccccc1)C(=O)N[C@@H](CC1CCCCC1)C(=O)NCCCC[C@H](NC(=O)[C@H](CC1CCCCC1)NC(=O)[C@H](CSCc1ccccc1)NC(=O)[C@H](N)CCC(=O)O)C(=O)NCCCC[C@H](NC(=O)[C@H](CCCCNC(=O)[C@H](CC1CCCCC1)NC(=O)[C@H](CSCc1ccccc1)NC(=O)[C@H](N)CCC(=O)O)NC(=O)[C@H](CC1CCCCC1)NC(=O)[C@H](CSCc1ccccc1)NC(=O)[C@H](N)CCC(=O)O)C(=O)NCC(=O)O` [iVR1-TFA, [D-Glu-L-Cys(Bzl)-L-Cha]4-Lys2-Lys-Gly], under setting [1], the IC50 was found to be 9350 nM.
